# Test results taken from PubChem BioAssay (NCI).
# Where “and” joins values, the source holds several entries; their conditions need not be identical. Equal values may be shown once.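 Grown in 96-well plates, cells were treated for 48 hours with each compound at five concentrations. Insufficient inhibition: endpoint recorded as highest concentration tested. GI50 is the concentration that inhibits growth by half. Definition used: TGI = concentration required for complete inhibition of growth.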
# Experiments:
# Test in all cases: NCI-60 cell line screen, 48 h
# SF-268 CNS = system: SF-268 CNS
# ACHN renal = system: ACHN renal
# CAKI-1 renal = system: CAKI-1 renal
# SR leukemia = system: SR leukemia
# UACC-257 melanoma = system: UACC-257 melanoma
# SK-MEL-28 melanoma = system: SK-MEL-28 melanoma
# OVCAR-5 ovarian = system: OVCAR-5 ovarian
# OVCAR-3 ovarian = system: OVCAR-3 ovarian
# NCI/ADR-RES ovarian = system: NCI/ADR-RES ovarian
# T-47D breast = system: T-47D breast
SMILES,TGI (SF-268 CNS),TGI (ACHN renal),TGI (CAKI-1 renal),TGI (SR leukemia),TGI (UACC-257 melanoma),TGI (SK-MEL-28 melanoma),TGI (OVCAR-5 ovarian),TGI (OVCAR-3 ovarian),GI50 (OVCAR-3 ovarian),GI50 (NCI/ADR-RES ovarian),TGI (NCI/ADR-RES ovarian),GI50 (SF-268 CNS),GI50 (ACHN renal),GI50 (CAKI-1 renal),GI50 (UACC-257 melanoma),GI50 (SK-MEL-28 melanoma),GI50 (T-47D breast),TGI (T-47D breast),GI50 (OVCAR-5 ovarian)
COc1cc2ccc(CC#N)cc2cc1OC,> 100 µM,> 100 µM,> 100 µM,> 100 µM,> 100 µM,> 100 µM,> 100 µM,,,,,,,,,,,,
C(=C1\CCC/C(=C/c2ccccc2)C1=NNc1ccccc1)/c1ccccc1,> 100 µM,> 100 µM,,,> 100 µM,> 100 µM,> 100 µM,> 100 µM,,,,,,,,,,,
CC(C)[C@@H](C(=O)O[C@@H]1/C=C/C(=O)O[C@@H](C)CCC/C=C/[C@@H]2C[C@H](O)C[C@H]21)[N+](C)(C)C,> 100 µM,> 100 µM,> 100 µM,,> 100 µM,> 100 µM,> 100 µM,> 100 µM,> 100 µM,> 100 µM,> 100 µM,> 100 µM,> 100 µM,> 100 µM,> 100 µM,> 100 µM,> 100 µM,> 100 µM,> 100 µM
CNC1=C(C)C(=O)C(C)=C(C(C)(C)CC(=O)n2cc(F)c(=O)[nH]c2=O)C1=O,> 100 µM,> 100 µM,> 100 µM,,> 100 µM,> 100 µM,> 100 µM,> 100 µM,,,,,,,,,,,
O=C(N/C(=C\c1ccc([N+](=O)[O-])cc1)c1nc2[nH]c(=S)[nH]c(=O)c2[nH]1)c1ccccc1,> 100 µM,> 100 µM,> 100 µM,> 100 µM,,> 100 µM,> 100 µM,> 100 µM,,,,,,,,,,,
O=C1C2Cc3ccccc3CN2C(=O)N1CN1CCN(CN2C(=O)C3Cc4ccccc4CN3C2=O)CC1 (centres undefined),> 100 µM,> 100 µM,> 100 µM,,> 100 µM,> 100 µM,> 100 µM,> 100 µM,,,,,,,,,,,
COc1cc(NCC(C#N)C#N)ccc1N=Nc1ccc([N+](=O)[O-])cc1,> 100 µM,> 100 µM,> 100 µM,> 100 µM,> 100 µM,> 100 µM,> 100 µM,> 100 µM,,,,,,,,,,,
CCN(CC)c1ccc(/C=C/C(=O)c2cccc(NS(C)(=O)=O)c2)cc1,> 100 µM,> 100 µM,> 100 µM,,> 100 µM,> 100 µM,> 100 µM,> 100 µM,6.37 µM,,,18.5 µM,6.2 µM,7.97 µM,92.5 µM,43.5 µM,4.29 µM,> 100 µM,35 µM
NC1=CC(=O)C(=O)c2cccnc21,18 µM,19.9 µM,31.2 µM,,6.7 µM,6.38 µM,34.3 µM,29.4 µM,12.9 µM,3.6 µM,24 µM,4.81 µM,6.73 µM,8.45 µM,2.23 µM,2.6 µM,3.68 µM,9.73 µM,17.8 µM
CCCNC(=O)c1cc2ccccc2cc1C(=O)OC,> 100 µM,> 100 µM,> 100 µM,,> 100 µM,> 100 µM,> 100 µM,> 100 µM,,,,,,,,,,,
CCOC(=O)CNC(SC)=C(C#N)C#N,> 100 µM,,> 100 µM,> 100 µM,> 100 µM,,> 100 µM,> 100 µM,,,,,,,,,,,
O=C1c2c(c3c4ccccc4n4c3c3c2c2ccccc2n3C/C=C\C4)C(=O)N1Cc1ccccc1,,> 100 µM,,> 100 µM,> 100 µM,> 100 µM,> 100 µM,> 100 µM,,,,,,,,,,,
COc1cc2c(c3oc(-c4ccc5c(c4)OCO5)c(O)c(=O)c13)CCC(C)(C)O2,,,,,,> 100 µM,,> 100 µM,,,,,,,,,,,
CCOC(=O)c1c(-c2[nH]c(C(=O)OCc3ccccc3)c(C)c2C(=O)OCC)[nH]c(C(=O)OCc2ccccc2)c1C,> 100 µM,> 100 µM,> 100 µM,> 100 µM,,> 100 µM,> 100 µM,> 100 µM,,,,,,,,,,,
COc1ccc(CNc2nc3ccccc3nc2-c2cccs2)cc1OC,> 100 µM,> 100 µM,,> 100 µM,> 100 µM,> 100 µM,> 100 µM,> 100 µM,,,,,,,,,,,
O=C(O)c1cn(C2CC2)c2cc(N3CCN(S(=O)(=O)c4ccc(Cl)c(Cl)c4)CC3)c(F)cc2c1=O,> 100 µM,> 100 µM,,,,,> 100 µM,44 µM,3.9 µM,4.01 µM,> 100 µM,4.77 µM,3.1 µM,,,,3.77 µM,> 100 µM,4.14 µM
CSc1nc2c(nc(N)n2C2OCC(O)C(O)C2O)c(=O)[nH]1 (centres undefined),> 100 µM,> 100 µM,> 100 µM,> 100 µM,> 100 µM,> 100 µM,,> 100 µM,,,,,,,,,,,
O=C1c2cnccc2Cc2cccc3c2N1c1ccccc1S3,> 100 µM,73.9 µM,32.6 µM,34.8 µM,59 µM,78.2 µM,,44.5 µM,,,,,,,,,,,
O=C1C[C@@H](c2ccccc2)NCCCCN(O)CCCN1,> 100 µM,> 100 µM,> 100 µM,,> 100 µM,> 100 µM,> 100 µM,> 100 µM,,,> 100 µM,,,,,,,> 100 µM,
CC1=C[C@H]2c3c(c(O)c(O)c4oc5cc(O)cc(O)c5c(=O)c34)[C@H](c3cc(O)c(O)c4oc5cc(O)cc(O)c5c(=O)c34)[C@H]2C(C)(C)C1,11.3 µM and 11.8 µM,5.27 µM and 10.2 µM,11.1 µM and 6.53 µM,,9.78 µM and 21.6 µM,3.44 µM and 4.28 µM,10.5 µM and 6.58 µM,4.02 µM and 7.54 µM,1.7 µM and 2 µM,8.48 µM and 3.63 µM,34.9 µM and 25.4 µM,2.14 µM and 2.09 µM,1.73 µM and 1.84 µM,3.45 µM and 2.18 µM,3.02 µM and 4.3 µM,1.5 µM and 1.76 µM,2.78 µM,26 µM,2.71 µM and 2.1 µM
COc1cc(C/C=C/c2ccccc2)c(OC)cc1O,59.4 µM,52.7 µM,65.7 µM,,> 100 µM,35.3 µM,60.6 µM,51.1 µM,,,72 µM,,,,,,,35.3 µM,
OCCc1cnco1,> 100 µM,,,,,> 100 µM,,> 100 µM,,,,,,,,,,,
CSc1nc(Cl)c(Br)c(Nc2c[nH]c(=O)[nH]c2=O)n1,,35.5 µM,3.22 µM,,38.7 µM,95.8 µM,,40.7 µM,,,43.3 µM,,,,,,,40 µM,
COc1cc(C2[C@H]3C(=O)N(c4ccc(Cc5ccc(N6C(=O)[C@@H]7ON(c8ccccc8)C(c8cc(OC)c(OC)c(OC)c8)[C@@H]7C6=O)cc5)cc4)C(=O)[C@H]3ON2c2ccccc2)cc(OC)c1OC (some centres undefined),> 100 µM,> 100 µM,> 100 µM,> 100 µM,> 100 µM,> 100 µM,> 100 µM,> 100 µM,,,,,,,,,,,
